Results published in patent US20110207926A1, “NOVEL DIHYDROTRIAZINE DERIVATIVE” (HAMARI CHEMICALS, LTD., priority 2008, published 2011).
Values after ≈ are worked out from the molar mass of the structure shown. Like-named read-outs stand apart in the source and are kept apart here.

What was measured:
Assay in all cases: Bactericidal activity test (MBC measurement)
S. aureus ATCC 6538 = type: cell-based, Staphylococcus aureus
Method: (§1) Each strain was cultured in Trypticase Soy agar medium for 18 to 20 hr, suspended in 0.1% peptone saline, and prepared to OD 600 nm, 1.0 McFarland. The suspension was further diluted with 0.1% peptone saline to give a test bacteria solution (targeted value; 2×10^7 CFU/mL).
(§2) At 0.5, 1 and 3 min from the start of the reaction, a part of the reaction mixture was sampled and mixed with an equal amount of a neutralizing agent (10% Tween 80, 3% lecithin/aqueous solution) to terminate the bactericidal reaction. The reaction mixture was inoculated to a 96 well microplate dispensed with 180 μL of Tripticase Soy liquid medium in advance, and statically cultured at 37° C. for 20 to 24 hr. Thereafter, the presence or absence of growth was visually evaluated, and the minimum concentration at which growth was not observed was taken as the minimal bactericidal concentration (MBC value) of each action time. The numerical values in the Tables show MBC, the unit is μg/mL, S. aureus means Staphylococcus aureus, MRSA means methicillin-resistant Staphylococcus aureus, E. coli means Escherichia coli, and P. aeruginosa means Pseudomonas aeruginosa.

MRSA ATCC 33591 = type: cell-based, methicillin-resistant Staphylococcus aureus
Method: as §1, §2

P. aeruginosa ATCC 27853 = type: cell-based, Pseudomonas aeruginosa
Method: as §1, §2

P. aeruginosa PAO-1 = type: cell-based, Pseudomonas aeruginosa
Method: as §1, §2

E. coli ATCC 25922 = type: cell-based, Escherichia coli
Method: as §1, §2

[1] = S. aureus ATCC 6538, action time 0.5 min
[2] = S. aureus ATCC 6538, action time 1 min
[3] = MRSA ATCC 33591, action time 0.5 min
[4] = MRSA ATCC 33591, action time 1 min
[5] = MRSA ATCC 33591, action time 3 min
[6] = P. aeruginosa ATCC 27853, action time 0.5 min
[7] = Staphylococcus aureus, ATCC6538, 0.5 min, S. aureus ATCC 6538, action time 0.5 min, read-out: MBC
[8] = Staphylococcus aureus, ATCC6538, 1 min, S. aureus ATCC 6538, action time 1 min, read-out: MBC
[9] = Staphylococcus aureus, ATCC6538, 0.05 h, S. aureus ATCC 6538, action time 3 min, read-out: MBC
[10] = Staphylococcus aureus, 0.5 min, MRSA ATCC 33591, action time 0.5 min, read-out: MBC
[11] = Staphylococcus aureus, 1 min, MRSA ATCC 33591, action time 1 min, read-out: MBC
[12] = Staphylococcus aureus, 0.05 h, MRSA ATCC 33591, action time 3 min, read-out: MBC
[13] = Escherichia coli, ATCC25922, 0.5 min, E. coli ATCC 25922, action time 0.5 min, read-out: MBC
[14] = Escherichia coli, ATCC25922, 1 min, E. coli ATCC 25922, action time 1 min, read-out: MBC
[15] = Escherichia coli, ATCC25922, 0.05 h, E. coli ATCC 25922, action time 3 min, read-out: MBC
[16] = Pseudomonas aeruginosa, ATCC27853, 0.5 min, P. aeruginosa ATCC 27853, action time 0.5 min, read-out: MBC
[17] = Pseudomonas aeruginosa, ATCC27853, 1 min, P. aeruginosa ATCC 27853, action time 1 min, read-out: MBC
[18] = Pseudomonas aeruginosa, ATCC27853, 0.05 h, P. aeruginosa ATCC 27853, action time 3 min, read-out: MBC

Row | Compound | MBC (S. aureus ATCC 6538; [7]) [µg/mL] | MBC (S. aureus ATCC 6538; [8]) [µg/mL] | MBC (S. aureus ATCC 6538; [9]) [µg/mL] | MBC (MRSA ATCC 33591; [10]) [µg/mL] | MBC (MRSA ATCC 33591; [11]) [µg/mL] | MBC (MRSA ATCC 33591; [12]) [µg/mL] | MBC (E. coli ATCC 25922; [13]) [µg/mL] | MBC (E. coli ATCC 25922; [14]) [µg/mL] | MBC (E. coli ATCC 25922; [15]) [µg/mL] | MBC (P. aeruginosa ATCC 27853; [16]) [µg/mL] | MBC (P. aeruginosa ATCC 27853; [17]) [µg/mL] | MBC (P. aeruginosa ATCC 27853; [18]) [µg/mL] | further results
1 | 1,6-dihydro-6,6-dimethyl-N^4-decyl-N^2-benzyl-N^2-methyl-1,3,5-triazine-2,4-diamine gluconate [Example 3] |  |  |  |  |  |  |  |  |  |  |  |  | MBC (S. aureus ATCC 6538; [1]): 25 µg/mL; MBC (S. aureus ATCC 6538; [2]): 25 µg/mL; MBC (MRSA ATCC 33591; [3]): 25 µg/mL; MBC (MRSA ATCC 33591; [4]): 25 µg/mL; MBC (MRSA ATCC 33591; [5]): 25 µg/mL; MBC (P. aeruginosa ATCC 27853; [6]): 25 µg/mL; MBC (P. aeruginosa ATCC 27853; P. aeruginosa ATCC 27853, action time 1 min): 25 µg/mL; MBC (P. aeruginosa ATCC 27853; P. aeruginosa ATCC 27853, action time 3 min): 25 µg/mL; MBC (P. aeruginosa PAO-1; P. aeruginosa PAO-1, action time 0.5 min): 25 µg/mL; MBC (P. aeruginosa PAO-1; P. aeruginosa PAO-1, action time 1 min): 25 µg/mL; MBC (P. aeruginosa PAO-1; P. aeruginosa PAO-1, action time 3 min): 25 µg/mL
2 | CCCCCCCCCCCCNC1=NC(N2CCOCC2)=NCN1 [Example 8, 1,6-dihydro-N-dodecyl-4-(morpholin-4-yl)-1,3,5-triazine-2-amine] | 37.5 (≈ 107 µM) | 25 (≈ 71.1 µM) | 9.4 (≈ 26.7 µM) | 37.5 (≈ 107 µM) | 18.8 (≈ 53.5 µM) | 6.3 (≈ 17.9 µM) | 18.8 (≈ 53.5 µM) | 12.5 (≈ 35.6 µM) | 9.4 (≈ 26.7 µM) | 12.5 (≈ 35.6 µM) | 12.5 (≈ 35.6 µM) | 9.4 (≈ 26.7 µM) | 
3 | CC(=O)O.CCCCCCCCCCCCNC1=NC(N2CCN(C)CC2)=NC(C)(C)N1 [Example 10, N-dodecyl-6,6-dimethyl-4-(4-methylpiperazin-1-yl)-1,6-dihydro-1,3,5-triazine-2-amine acetate] | 75 | 50 | 12.5 | 50 | 50 | 12.5 | 25 | 25 | 25 | 25 | 18.8 | 18.8 | 
4 | CC(=O)O.CCCCCCCCCCNC1=NC(N2CCCCC2)=NC(C)(C)N1 [Example 11, N-decyl-6,6-dimethyl-4-(piperidin-1-yl)-1,6-dihydro-1,3,5-triazine-2-amine acetate] | 50 | 37.5 | 25 | 75 | 62.5 | 31.3 | 18.8 | 18.8 | 18.8 | 25 | 25 | 18.8 | 
5 | CCCCCCCCCCNC1=NC(N2Cc3ccccc3C2)=NC(C)(C)N1 [Example 12, N-decyl-4-(1,3-dihydro-2H-isoindol-2-yl)-6,6-dimethyl-1,6-dihydro-1,3,5-triazine-2-amine] | 25 (≈ 65.2 µM) | 18.8 (≈ 49 µM) | 4.7 (≈ 12.3 µM) | 25 (≈ 65.2 µM) | 12.5 (≈ 32.6 µM) | 6.3 (≈ 16.4 µM) | 18.8 (≈ 49 µM) | 18.8 (≈ 49 µM) | 15.7 (≈ 40.9 µM) | 37.5 (≈ 97.8 µM) | 37.5 (≈ 97.8 µM) | 18.8 (≈ 49 µM) | 
6 | CC(=O)O.CCCCCCCCNC1=NC(C)(C)NC(N(CC)Cc2ccccc2)=N1 [Example 13, 1,6-dihydro-6,6-dimethyl-N^4-octyl-N^2-benzyl-N^2-ethyl-1,3,5-triazine-2,4-diamine acetate] | 50 | 25 | 18.8 | 62.5 | 37.5 | 18.8 | 25 | 18.8 | 12.5 | 18.8 | 18.8 | 18.8 | 
7 | CCCCCCCCNC1=NC(C)(C)NC(N(C)CCc2ccccc2)=N1 [Example 14, 1,6-dihydro-6,6-dimethyl-N^4-octyl-N^2-methyl-N^2-(2-phenylethyl)-1,3,5-triazine-2,4-diamine] | 75 (≈ 202 µM) | 37.5 (≈ 101 µM) | 18.8 (≈ 50.6 µM) | 62.5 (≈ 168 µM) | 31.3 (≈ 84.2 µM) | 15.7 (≈ 42.3 µM) | 25 (≈ 67.3 µM) | 25 (≈ 67.3 µM) | 12.5 (≈ 33.6 µM) | 25 (≈ 67.3 µM) | 18.8 (≈ 50.6 µM) | 12.5 (≈ 33.6 µM) | 
8 | CCCCCCCCCCNC1=NC(C)(C)NC(N(C)CCC)=N1 [Example 16, 1,6-dihydro-6,6-dimethyl-N^4-decyl-N^2-methyl-N^2-propyl-1,3,5-triazine-2,4-diamine] | 75 (≈ 222 µM) | 50 (≈ 148 µM) | 25 (≈ 74.1 µM) | 100 (≈ 296 µM) | 37.5 (≈ 111 µM) | 18.8 (≈ 55.7 µM) | 18.8 (≈ 55.7 µM) | 18.8 (≈ 55.7 µM) | 9.4 (≈ 27.8 µM) | 25 (≈ 74.1 µM) | 18.8 (≈ 55.7 µM) | 18.8 (≈ 55.7 µM) | 
9 | CCCCCCCCCCCNC1=NC(C)(C)NC(N(C)Cc2ccc(N)cc2)=N1.Cl.Cl [Example 17, 1,6-dihydro-6,6-dimethyl-N^4-undecyl-N^2-(4-aminobenzyl)-N^2-methyl-1,3,5-triazine-2,4-diamine dihydrochloride] | 25 | 15.7 | 7.8 | 18.8 | 12.5 | 6.3 | 25 | 18.8 | 12.5 | 37.5 | 18.8 | 9.4 | 
10 | CCCCCCCCCCCCCCN(C)C1=NC(C)(C)NC(N)=N1.Cl [Example 18, N^4-tetradecyl-N^4-methyl-1,6-dihydro-6,6-dimethyl-1,3,5-triazine-2,4-diamine hydrochloride] | 18.8 | 12.5 | 4.7 | 18.8 | 9.4 | 4.7 | 12.5 | 12.5 | 6.3 | 18.8 | 12.5 | 9.4 | 
11 | N=C(NCCCCCCNC(=N)NC(=N)Nc1ccc(Cl)cc1)NC(=N)Nc1ccc(Cl)cc1.O=C(O)[C@H](O)[C@@H](O)[C@H](O)[C@H](O)CO.O=C(O)[C@H](O)[C@@H](O)[C@H](O)[C@H](O)CO [control, chlorhexidine gluconate, reference compound] |  |  |  |  |  |  |  |  |  |  |  |  | MBC (S. aureus ATCC 6538; [1]): >200 µg/mL; MBC (S. aureus ATCC 6538; [2]): >200 µg/mL; MBC (S. aureus ATCC 6538; S. aureus ATCC 6538, action time 3 min): >200 µg/mL; MBC (MRSA ATCC 33591; [3]): >200 µg/mL; MBC (MRSA ATCC 33591; [4]): >200 µg/mL; MBC (MRSA ATCC 33591; [5]): 200 µg/mL; MBC (E. coli ATCC 25922; E. coli ATCC 25922, action time 0.5 min): 100 µg/mL; MBC (P. aeruginosa ATCC 27853; [6]): >200 µg/mL
